Measurements published in PMC12920416, “Preclinical development of [^18F]TAAR1-2203 as a PET radioligand for imaging TAAR1 expression and receptor occupancy” (European Journal of Nuclear Medicine and Molecular Imaging, 2025).

How the values were obtained:
[1] = target: T1, TAAR1 (Mus musculus, UniProt Q923Y8); experiment: In vitro autoradiography, TAAR1 knockout vs wild-type mouse tissue sections; assay type: binding
T1 construct: peripheral organs that express endogenous TAAR1; tissue Charles River (wild-type); F. Hoffmann-La Roche Ltd. (TAAR1 knock-out and matched controls); host or cells: mouse pancreas, kidney, liver, brain
T1 sequence (Q923Y8 whole entry): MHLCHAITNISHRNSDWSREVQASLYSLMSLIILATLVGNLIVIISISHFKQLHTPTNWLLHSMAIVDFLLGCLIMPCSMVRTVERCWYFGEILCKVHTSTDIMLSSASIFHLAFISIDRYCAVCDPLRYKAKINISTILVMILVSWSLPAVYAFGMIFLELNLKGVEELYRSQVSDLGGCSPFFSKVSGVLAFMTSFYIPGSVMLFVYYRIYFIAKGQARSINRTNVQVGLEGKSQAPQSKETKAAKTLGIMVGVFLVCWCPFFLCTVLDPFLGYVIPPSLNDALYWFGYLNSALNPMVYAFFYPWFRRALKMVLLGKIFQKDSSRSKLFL
Experimental: In vitro autoradiography experiments with [^18F]TAAR1-2203 were conducted on mouse and rat pancreas, kidney and brain tissue sections, respectively. Tissue Sect. (20 μm) were thawed on ice for 10 min and preincubated in assay buffer (50 mM Tris, pH 7.4) for 10 min. Subsequently, sections were incubated with [^18F]TAAR1-2203 for 40 min at ambient temperature. For blocking studies, structurally distinct TAAR1 agonists, RO5333943 or RO5425754, were added in excess to the assay buffer at a final concentration of 10 µM. After incubation, sections were washed in assay buffer for 2 min on ice and dipped briefly in water (2 × 5 s), followed by drying and exposure to a phosphor imager plate for 60 min. Imager plates were scanned on an Amersham Typhoon analyzer system, and images were analyzed using ImageQuant TL 8.1, as previously reported.

[2] = Plasma protein binding of tracer, human plasma; assay type: in vitro ADME; conditions: radiotracer, 10 min incubation, ultrafiltration, read-out: Free fraction in human plasma
Experimental: (§1) Plasma protein binding of [^18F]TAAR1-2203 was determined in mouse, rat, NHP, and human plasma. Plasma samples (150 µL, n = 3) were preincubated at 37 °C for 5 min before addition of [^18F]TAAR1-2203 (10 µCi, 0.37 MBq). After 10 min of incubation, 300 µL of ice-cold PBS were added. Samples (300 µL) were then transferred onto Amicon® centrifugal filter units (10 kDa cut-off) and centrifuged at 2100 g for 15 min at 4 °C. Filtrates were washed with 300 µL PBS and centrifuged again. Radioactivity in the filtrate and protein-bound fractions was measured using a Packard Cobra 5002/5003 gamma counter.

[3] = Serum stability, human serum; assay type: in vitro ADME; conditions: 60 min, 37 °C
Experimental: (§2) The stability of [^18F]TAAR1-2203 was assessed in mouse, rat, NHP, and human serum. Aliquots (400 µL) of serum were preincubated at 37 °C for 5 min, followed by the addition of [^18F]TAAR1-2203 (20 µL, 300 µCi/11.1 MBq). After 60 min, 200 µL of each sample was collected, quenched with ice-cold MeCN (200 µL), centrifuged at 10,000 g for 5 min, and analyzed by radio-HPLC (XBridge C18 column, 3.5 μm, 4.6 mm × 150 mm; CH3CN/H2O 35:65 with 0.1% TEA; flow rate 1.0 mL/min). Experiments in PBS served as negative controls, and benfluorex hydrochloride was used as a positive control.

[4] = Distribution coefficient (LogD), shake-flask method; assay type: physicochemical; conditions: n-octanol/PBS pH 7.4, n = 3, read-out: LogD7.4
Experimental: The distribution coefficient (LogD) was determined using the shake-flask method. Briefly, 500 µCi (18.5 MBq) of [^18F]TAAR1-2203 was added to a presaturated mixture of PBS (1.3 mL, pH 7.4) and n-octanol (3 mL). The mixture was vortexed for 5 min, after which 500 µL aliquots (n = 3) were transferred into separate tubes and centrifuged at 3500–4000 rpm for 5 min. Following centrifugation, 50 µL of the n-octanol phase and 500 µL of the aqueous phase were carefully sampled and transferred into pre-weighed gamma counter tubes. After weighing, radioactivity in each phase was quantified using a Packard Cobra 5002/5003 gamma counter. The LogD value at pH 7.4 was calculated based on the measured weights and the radioactivity distribution between the organic and aqueous phases, as previously reported.

[5] = Microsomal stability, mouse liver microsomes; assay type: in vitro ADME; conditions: after 60 min, 37 °C, printed as rodent microsomes
Experimental: (§3) Microsomal stability of [^18F]TAAR1-2203 was evaluated using mouse, rat, NHP, and human liver microsomes. Potassium phosphate buffer (340 µL, 0.5 M, pH 7.4) was combined with NADPH regenerating solution (40 µL, 10 mM). Radiotracer solution (10 µL, 150 µCi, 5.5 MBq) was added, and the mixture was preincubated at 37 °C for 5 min. Liver microsomes (20 µL) were subsequently added. Incubations were carried out at 37 °C with gentle shaking. At 30 and 60 min, 200 µL aliquots were quenched with ice-cold MeCN (200 µL), centrifuged at 10,000 g for 5 min, and analyzed using an AR-2000 radio-TLC imaging scanner (Eckert & Ziegler).

[6] = Plasma protein binding of tracer, mouse plasma; assay type: in vitro ADME; conditions: radiotracer, 10 min incubation, ultrafiltration, read-out: Free fraction in mouse plasma
Experimental: as §1

[7] = Microsomal stability, rat liver microsomes; assay type: in vitro ADME; conditions: after 60 min, 37 °C, printed as rodent microsomes
Experimental: as §3

[8] = target: T1, TAAR1; experiment: Dynamic PET imaging, TAAR1 knockout vs wild-type mice; assay type: in vivo
Experimental: (§4) Dynamic PET imaging was performed for 60 min in female C57BL/6 mice, as well as in TAAR1 knock-out mice and respective controls, under 1–2% (v/v) isoflurane anaesthesia as previously reported. [^18F]TAAR1-2203 (1.5 MBq in 100 µL saline) was administered via tail vein injection. For blocking studies, TAAR1 agonist RO5425754 (4 mg/kg) was injected 5 min prior to radiotracer administration. Dynamic PET scans were acquired using a G8 PET/CT scanner (Sofie Biosciences, Culver, CA, USA) and analyzed with PMOD software (PMOD Technologies Ltd., Zurich, Switzerland). Radioactivity was decay-corrected and expressed as standardized uptake values (SUVs), normalized to body weight and injected dose.

[9] = Microsomal stability, human liver microsomes; assay type: in vitro ADME; conditions: after 60 min, 37 °C
Experimental: as §3

[10] = target: T1, TAAR1; experiment: Dynamic PET imaging, baseline vs blockade; assay type: in vivo, CD1 mice
Experimental: as §4

[11] = Serum stability, mouse serum; assay type: in vitro ADME; conditions: 60 min, 37 °C
Experimental: as §2

[12] = PET, blockade with RO5425754 4 mg/kg

Cc1c([18F])cccc1[C@H]1COC(N)=N1 [[^18F]TAAR1-2203]
Tracer signal in brain tissue, TAAR1 KO vs WT mice [1]: comparably low in both WT and KO animals
Change in tracer binding in kidney of TAAR1 KO vs WT mice ([1]; n = 6, p < 0.001): −50%
Change in tracer binding in pancreas of TAAR1 KO vs WT mice ([1]; n = 6, p < 0.001): −32%
fraction unbound at 10 min [2]: ~0.6
Intact parent tracer in human serum [3]: > 99%
logD [4]: 1.64 ± 0.01
Intact tracer in mouse liver microsomes [5]: > 98%
fraction unbound at 10 min, 2.47 MBq/mL [6]: ~0.6
Intact tracer in rat liver microsomes [7]: > 98%
Kidney AUC0−60 min in TAAR1 KO vs WT mice [8]: significant reduction
Intact tracer in human liver microsomes [9]: > 99%
Specific binding in the CNS ([10]; PET imaging and in vitro autoradiography): no specific TAAR1 binding was observed
Tracer uptake in kidney (AUC 0–60 min), blockade vs baseline [10, 12]: significant reduction
Tracer uptake in pancreas (AUC 0–60 min), blockade vs baseline [10, 12]: significant reduction
Intact parent tracer in mouse serum [11]: > 99%
